CC(=O)Nc1ccc(OC(=O)c2ccccc2OC(C)=O)cc1
solubility (mole fraction) (in 1,4-dioxane, 293.15 K): 0.00169 | solubility (mole fraction) (in 1,4-dioxane, 298.15 K): 0.00204 | solubility (mole fraction) (in 1,4-dioxane, 303.15 K): 0.0025 | solubility (mole fraction) (in 1,4-dioxane, 308.15 K): 0.00298 | solubility (mole fraction) (in 1,4-dioxane, 313.15 K): 0.0035 | solubility (mole fraction) (in 1,4-dioxane, 318.15 K): 0.00427 | solubility (mole fraction) (in 2-butanone, 278.15 K): 0.0025 | solubility (mole fraction) (in 2-butanone, 283.15 K): 0.00267 | solubility (mole fraction) (in 2-butanone, 288.15 K): 0.00287 | solubility (mole fraction) (in 2-butanone, 293.15 K): 0.00308 | solubility (mole fraction) (in 2-butanone, 298.15 K): 0.00333 | solubility (mole fraction) (in 2-butanone, 303.15 K): 0.00361 | solubility (mole fraction) (in 2-butanone, 308.15 K): 0.00392 | solubility (mole fraction) (in 2-butanone, 313.15 K): 0.00429 | solubility (mole fraction) (in 2-butanone, 318.15 K): 0.00465 | solubility (mole fraction) (in DMF, 278.15 K): 0.0172 | solubility (mole fraction) (in DMF, 283.15 K): 0.0182 | solubility (mole fraction) (in DMF, 288.15 K): 0.0192 | solubility (mole fraction) (in DMF, 293.15 K): 0.0203 | solubility (mole fraction) (in DMF, 298.15 K): 0.0215 | solubility (mole fraction) (in DMF, 303.15 K): 0.0228 | solubility (mole fraction) (in DMF, 308.15 K): 0.0242 | solubility (mole fraction) (in NMP, 278.15 K): 0.0209 | solubility (mole fraction) (in NMP, 283.15 K): 0.024 | solubility (mole fraction) (in NMP, 288.15 K): 0.0272 | solubility (mole fraction) (in NMP, 293.15 K): 0.0304 | solubility (mole fraction) (in NMP, 298.15 K): 0.0341 | solubility (mole fraction) (in NMP, 303.15 K): 0.0378 | solubility (mole fraction) (in NMP, 308.15 K): 0.0417 | solubility (mole fraction) (in NMP, 313.15 K): 0.0464 | solubility (mole fraction) (in NMP, 318.15 K): 0.0512 | solubility (mole fraction) (in acetonitrile, 278.15 K): 0.000681 | solubility (mole fraction) (in acetonitrile, 283.15 K): 0.000855 | solubility (mole fraction) (in acetonitrile, 288.15 K): 0.00105 | solubility (mole fraction) (in acetonitrile, 293.15 K): 0.00134 | solubility (mole fraction) (in acetonitrile, 298.15 K): 0.00164 | solubility (mole fraction) (in acetonitrile, 303.15 K): 0.00199 | solubility (mole fraction) (in acetonitrile, 308.15 K): 0.00236 | solubility (mole fraction) (in acetonitrile, 313.15 K): 0.00283 | solubility (mole fraction) (in acetonitrile, 318.15 K): 0.00339 | solubility (mole fraction) (in ethanol, 278.15 K): 0.000158 | solubility (mole fraction) (in ethanol, 283.15 K): 0.00021 | solubility (mole fraction) (in ethanol, 288.15 K): 0.000265 | solubility (mole fraction) (in ethanol, 293.15 K): 0.000326 | solubility (mole fraction) (in ethanol, 298.15 K): 0.000403 | solubility (mole fraction) (in ethanol, 303.15 K): 0.000486 | solubility (mole fraction) (in ethanol, 308.15 K): 0.000589 | solubility (mole fraction) (in ethanol, 313.15 K): 0.000733 | solubility (mole fraction) (in ethanol, 318.15 K): 0.000907 | solubility (mole fraction) (in ethyl acetate, 278.15 K): 0.000392 | solubility (mole fraction) (in ethyl acetate, 283.15 K): 0.000519 | solubility (mole fraction) (in ethyl acetate, 288.15 K): 0.000651 | solubility (mole fraction) (in ethyl acetate, 293.15 K): 0.000789 | solubility (mole fraction) (in ethyl acetate, 298.15 K): 0.000983 | solubility (mole fraction) (in ethyl acetate, 303.15 K): 0.00119 | solubility (mole fraction) (in ethyl acetate, 308.15 K): 0.00141 | solubility (mole fraction) (in ethyl acetate, 313.15 K): 0.00169 | solubility (mole fraction) (in ethyl acetate, 318.15 K): 0.00198 | solubility (mole fraction) (in isopropanol, 278.15 K): 7.6e-05 | solubility (mole fraction) (in isopropanol, 283.15 K): 0.000107 | solubility (mole fraction) (in isopropanol, 288.15 K): 0.000139 | solubility (mole fraction) (in isopropanol, 293.15 K): 0.000178 | solubility (mole fraction) (in isopropanol, 298.15 K): 0.000217 | solubility (mole fraction) (in isopropanol, 303.15 K): 0.000262 | solubility (mole fraction) (in isopropanol, 308.15 K): 0.000323 | solubility (mole fraction) (in isopropanol, 313.15 K): 0.000394 | solubility (mole fraction) (in isopropanol, 318.15 K): 0.000493 | solubility (mole fraction) (in methanol, 278.15 K): 0.000143 | solubility (mole fraction) (in methanol, 283.15 K): 0.000182 | solubility (mole fraction) (in methanol, 288.15 K): 0.000228 | solubility (mole fraction) (in methanol, 293.15 K): 0.000278 | solubility (mole fraction) (in methanol, 298.15 K): 0.000337 | solubility (mole fraction) (in methanol, 303.15 K): 0.000403 | solubility (mole fraction) (in methanol, 308.15 K): 0.000485 | solubility (mole fraction) (in methanol, 313.15 K): 0.000601 | solubility (mole fraction) (in methanol, 318.15 K): 0.000745 | solubility (mole fraction) (in n-butanol, 278.15 K): 0.000179 | solubility (mole fraction) (in n-butanol, 283.15 K): 0.000235 | solubility (mole fraction) (in n-butanol, 288.15 K): 0.0003 | solubility (mole fraction) (in n-butanol, 293.15 K): 0.000375 | solubility (mole fraction) (in n-butanol, 298.15 K): 0.000459 | solubility (mole fraction) (in n-butanol, 303.15 K): 0.000557 | solubility (mole fraction) (in n-butanol, 308.15 K): 0.000683 | solubility (mole fraction) (in n-butanol, 313.15 K): 0.000852 | solubility (mole fraction) (in n-butanol, 318.15 K): 0.00104 | solubility (mole fraction) (in n-propanol, 278.15 K): 8.8e-05 | solubility (mole fraction) (in n-propanol, 283.15 K): 0.000128 | solubility (mole fraction) (in n-propanol, 288.15 K): 0.000173 | solubility (mole fraction) (in n-propanol, 293.15 K): 0.000214 | solubility (mole fraction) (in n-propanol, 298.15 K): 0.000264 | solubility (mole fraction) (in n-propanol, 303.15 K): 0.000327 | solubility (mole fraction) (in n-propanol, 308.15 K): 0.000402 | solubility (mole fraction) (in n-propanol, 313.15 K): 0.000496 | solubility (mole fraction) (in n-propanol, 318.15 K): 0.000647 | solubility (mole fraction) (in toluene, 278.15 K): 1.3e-05 | solubility (mole fraction) (in toluene, 283.15 K): 1.8e-05 | solubility (mole fraction) (in toluene, 288.15 K): 2.5e-05 | solubility (mole fraction) (in toluene, 293.15 K): 3.4e-05 | solubility (mole fraction) (in toluene, 298.15 K): 4.3e-05 | solubility (mole fraction) (in toluene, 303.15 K): 5.5e-05 | solubility (mole fraction) (in toluene, 308.15 K): 6.8e-05 | solubility (mole fraction) (in toluene, 313.15 K): 8.6e-05 | solubility (mole fraction) (in toluene, 318.15 K): 0.000108

— BigSolDB 2.1
